{"source": "patent US9427415B2", "about": "“Methods and compositions for modifying sensorial perception” (The Procter & Gamble Company, priority 2014, dated 2016)", "key": {"human TRPA1": {"molecular_target": "T1, human TRPA1 (Homo sapiens, UniProt O75762, K186N/R3C/R58T)", "T1 construct": "expressed in transfected cells; pcDNA3 control cells", "T1 sequence (O75762 whole entry R3C/R58T/K186N)": "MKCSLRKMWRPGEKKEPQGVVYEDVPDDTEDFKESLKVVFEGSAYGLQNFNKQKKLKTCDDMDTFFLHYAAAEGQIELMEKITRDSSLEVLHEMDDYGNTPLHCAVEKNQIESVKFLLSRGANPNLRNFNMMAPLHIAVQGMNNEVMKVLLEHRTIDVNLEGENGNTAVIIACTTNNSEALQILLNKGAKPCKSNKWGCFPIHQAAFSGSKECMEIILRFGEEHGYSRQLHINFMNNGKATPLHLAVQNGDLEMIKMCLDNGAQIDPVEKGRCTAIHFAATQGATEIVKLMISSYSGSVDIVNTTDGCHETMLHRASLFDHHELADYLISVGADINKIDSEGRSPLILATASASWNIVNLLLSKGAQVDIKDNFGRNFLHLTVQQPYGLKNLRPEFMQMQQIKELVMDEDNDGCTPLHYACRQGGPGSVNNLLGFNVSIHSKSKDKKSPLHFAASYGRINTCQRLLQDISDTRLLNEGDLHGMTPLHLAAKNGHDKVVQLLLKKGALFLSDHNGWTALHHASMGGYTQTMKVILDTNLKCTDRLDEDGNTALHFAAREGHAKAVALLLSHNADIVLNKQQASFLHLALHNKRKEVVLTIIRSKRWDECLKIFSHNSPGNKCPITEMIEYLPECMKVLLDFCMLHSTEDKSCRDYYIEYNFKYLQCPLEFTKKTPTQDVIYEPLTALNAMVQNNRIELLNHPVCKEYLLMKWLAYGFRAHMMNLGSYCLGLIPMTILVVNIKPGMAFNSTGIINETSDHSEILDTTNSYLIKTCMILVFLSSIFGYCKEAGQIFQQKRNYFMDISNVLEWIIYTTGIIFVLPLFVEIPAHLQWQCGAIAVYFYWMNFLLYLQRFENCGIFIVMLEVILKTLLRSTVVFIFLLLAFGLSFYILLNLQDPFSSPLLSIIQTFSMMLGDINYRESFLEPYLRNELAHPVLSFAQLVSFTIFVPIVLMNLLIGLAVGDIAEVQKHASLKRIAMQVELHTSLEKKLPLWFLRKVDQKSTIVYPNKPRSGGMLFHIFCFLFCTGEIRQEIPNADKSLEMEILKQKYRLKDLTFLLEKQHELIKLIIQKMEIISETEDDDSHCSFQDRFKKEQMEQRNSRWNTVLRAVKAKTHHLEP", "assay": "Intracellular calcium (Fluo-4, FLIPR) activation of TRPA1 cells by GRAS compounds;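 for all read-outs here: TRPA1-expressing cells, fluorescence read on a FLIPR Tetra (ex 488 nm, em 514 nm) every 2 s for 10 min after compound addition, baseline subtracted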", "assay_type": "cell-based", "conditions": "relative to AITC 30 μM; for activation at 1000 µM / A1 activation, % of agonist value: 1 mM"}, "TRPA1V1": {"test_system": "TRPA1V1", "assay": "Intracellular calcium (Fluo-4, FLIPR) activation of TRPA1V1 cells (co-expressing TRPA1 and TRPV1) by GRAS compounds;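 note: HEK293 cells co-expressing TRPA1 and TRPV1, fluorescence read at 488/514 nm after baseline subtraction, recorded every 2 s over 10 min, ionomycin 10 µM and buffer as controls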", "assay_type": "cell-based, human", "conditions": "relative to AITC 30 μM"}, "[1]": {"conditions": "Table 1(d), read-out: A1 activation, % of agonist value"}, "[2]": {"conditions": "Table 1(c), read-out: A1 activation, % of agonist value"}, "[3]": {"conditions": "Table 1(e), read-out: A1 activation, % of agonist value"}}, "note": "Where two headings read alike, the source gives them in different places."}
{"compound": "CC(=O)OCc1ccco1", "note": "[Furfuryl acetate]", "values": [{"measurement": "activation at 1000 µM", "setting": "human TRPA1; [1]", "result": 120, "unit": "%"}, {"measurement": "A1V1 activation, % of agonist value", "setting": "TRPA1V1; Table 1(d), 1 mM", "result": 91.3, "unit": "%"}]}
{"compound": "CC1=C(C=O)C(C)(C)CC=C1", "note": "[Safranal]", "values": [{"measurement": "A1 activation, % of agonist value", "setting": "human TRPA1; Table 1(c)", "result": 73, "unit": "%"}, {"measurement": "A1V1 activation, % of agonist value", "setting": "TRPA1V1; Table 1(c), 1 mM", "result": 74.5, "unit": "%"}]}
{"compound": "CCCCCOC(=O)c1ccco1", "note": "[Amyl furoate]", "values": [{"measurement": "A1 activation, % of agonist value", "setting": "human TRPA1; Table 1(c)", "result": 81.09, "unit": "%"}, {"measurement": "A1V1 activation, % of agonist value", "setting": "TRPA1V1; Table 1(c), 1 mM", "result": 87.70, "unit": "%"}]}
{"compound": "CNc1ccccc1C(=O)OC", "note": "[Methyl N-methylanthranilate]", "values": [{"measurement": "activation at 1000 µM", "setting": "human TRPA1; [2]", "result": 83.6, "unit": "%"}, {"measurement": "A1V1 activation, % of agonist value", "setting": "TRPA1V1; Table 1(c), 1 mM", "result": 86.81, "unit": "%"}]}
{"compound": "CCCCCCCCCC=CC=O", "note": "[2-Dodecenal]", "values": [{"measurement": "activation at 1000 µM", "setting": "human TRPA1; [3]", "result": 65.5, "unit": "%"}, {"measurement": "A1V1 activation, % of agonist value", "setting": "TRPA1V1; Table 1(e), 1 mM", "result": 82.8, "unit": "%"}]}
{"compound": "CC(=O)OCc1ccccc1C", "note": "[O-Methylbenzyl acetate]", "values": [{"measurement": "A1 activation, % of agonist value", "setting": "human TRPA1; Table 1(c)", "result": 87.22, "unit": "%"}, {"measurement": "A1V1 activation, % of agonist value", "setting": "TRPA1V1; Table 1(c), 1 mM", "result": 77.24, "unit": "%"}]}
{"compound": "OCc1ccccc1", "note": "[Benzenemethanol]", "values": [{"measurement": "activation at 1000 µM", "setting": "human TRPA1; [2]", "result": 79.6, "unit": "%"}, {"measurement": "A1V1 activation, % of agonist value", "setting": "TRPA1V1; Table 1(c), 1 mM", "result": 78.47, "unit": "%"}]}
{"compound": "L-Ascorbic acid, calcium salt (2:1)", "values": [{"measurement": "A1 activation, % of agonist value", "setting": "human TRPA1; Table 1(c)", "result": 88.00, "unit": "%"}, {"measurement": "A1V1 activation, % of agonist value", "setting": "TRPA1V1; Table 1(c), 1 mM", "result": 93.20, "unit": "%"}]}
{"compound": "CCCC(CCOC(C)=O)SC", "note": "(stereo not drawn) [3-(Methylthio)hexyl acetate]", "values": [{"measurement": "activation at 1000 µM", "setting": "human TRPA1; [2]", "result": 97.9, "unit": "%"}, {"measurement": "A1V1 activation, % of agonist value", "setting": "TRPA1V1; Table 1(c), 1 mM", "result": 87.6, "unit": "%"}]}
{"compound": "COC(=O)c1ccccc1N(C)C", "note": "[N,N-Dimethylanthranilic acid methyl ester]", "values": [{"measurement": "activation at 1000 µM", "setting": "human TRPA1; [2]", "result": 74.2, "unit": "%"}, {"measurement": "A1V1 activation, % of agonist value", "setting": "TRPA1V1; Table 1(c), 1 mM", "result": 77.15, "unit": "%"}]}
{"compound": "CCCC(=O)OCc1ccc(OC)cc1", "note": "[p-Methoxybenzyl butyrate]", "values": [{"measurement": "activation at 1000 µM", "setting": "human TRPA1; [3]", "result": 34, "unit": "%"}, {"measurement": "A1V1 activation, % of agonist value", "setting": "TRPA1V1; Table 1(e), 1 mM", "result": 58.97, "unit": "%"}]}
{"compound": "C=C(C)CCCC(C)CCOC(C)=O", "note": "(stereo not drawn) [Rhodinyl acetate]", "values": [{"measurement": "A1 activation, % of agonist value", "setting": "human TRPA1; Table 1(c)", "result": 89.06, "unit": "%"}, {"measurement": "A1V1 activation, % of agonist value", "setting": "TRPA1V1; Table 1(c), 1 mM", "result": 89.69, "unit": "%"}]}
{"compound": "C=CCCCCCCCCC=O", "note": "[10-Undecenal]", "values": [{"measurement": "activation at 1000 µM", "setting": "human TRPA1; [1]", "result": 61.8, "unit": "%"}, {"measurement": "A1V1 activation, % of agonist value", "setting": "TRPA1V1; Table 1(d), 1 mM", "result": 28, "unit": "%"}]}
{"compound": "C=CC(C)(O)CCC=C(C)C", "note": "(stereo not drawn) [Linalool]", "values": [{"measurement": "activation at 1000 µM", "setting": "human TRPA1; [1]", "result": 52.6, "unit": "%"}, {"measurement": "A1V1 activation, % of agonist value", "setting": "TRPA1V1; Table 1(d), 1 mM", "result": 20, "unit": "%"}]}
{"compound": "CC(C)=CCC[C@](C)(O)C1CC=C(C)CC1", "note": "(stereo partly drawn) [Bisabolol]", "values": [{"measurement": "activation at 1000 µM", "setting": "human TRPA1; [2]", "result": 68, "unit": "%"}, {"measurement": "A1V1 activation, % of agonist value", "setting": "TRPA1V1; Table 1(c), 1 mM", "result": 73.53, "unit": "%"}]}
{"compound": "CCC/C=C/COC(=O)CCC", "note": "[trans-2-Hexenyl butyrate]", "values": [{"measurement": "activation at 1000 µM", "setting": "human TRPA1; [1]", "result": 48.9, "unit": "%"}, {"measurement": "A1V1 activation, % of agonist value", "setting": "TRPA1V1; Table 1(d), 1 mM", "result": 20, "unit": "%"}]}
{"compound": "OC[C@H]1O[C@@](CO)(O[C@H]2O[C@H](CO)[C@@H](O)[C@H](O)[C@H]2O)[C@@H](O)[C@@H]1O", "note": "[Sucrose]", "values": [{"measurement": "activation at 1000 µM", "setting": "human TRPA1; [2]", "result": 84.1, "unit": "%"}, {"measurement": "A1V1 activation, % of agonist value", "setting": "TRPA1V1; Table 1(c), 1 mM", "result": 80.86, "unit": "%"}]}
{"compound": "CC/C=C\\CC/C=C/C(OCC)OCC", "note": "[2,6-Nonadiene, 1,1-diethoxy-, (E,Z)-]", "values": [{"measurement": "activation at 1000 µM", "setting": "human TRPA1; [2]", "result": 89.3, "unit": "%"}, {"measurement": "A1V1 activation, % of agonist value", "setting": "TRPA1V1; Table 1(c), 1 mM", "result": 74.31, "unit": "%"}]}
{"compound": "C=CCOC(=O)Cc1ccccc1", "note": "[Allyl phenylacetate]", "values": [{"measurement": "activation at 1000 µM", "setting": "human TRPA1; [2]", "result": 86.2, "unit": "%"}, {"measurement": "A1V1 activation, % of agonist value", "setting": "TRPA1V1; Table 1(c), 1 mM", "result": 84.14, "unit": "%"}]}
{"compound": "CC(=O)CCC1=C(C)CCCC1(C)C", "note": "[Dihydro-beta-ionone]", "values": [{"measurement": "A1 activation, % of agonist value", "setting": "human TRPA1; Table 1(c)", "result": 64.4, "unit": "%"}, {"measurement": "A1V1 activation, % of agonist value", "setting": "TRPA1V1; Table 1(c), 1 mM", "result": 64.07, "unit": "%"}]}
{"compound": "CC(=O)O[C@@H]1C[C@H](C)CC[C@H]1C(C)C", "note": "[L-Menthyl acetate]", "values": [{"measurement": "A1 activation, % of agonist value", "setting": "human TRPA1; Table 1(e)", "result": 44.88, "unit": "%"}, {"measurement": "A1V1 activation, % of agonist value", "setting": "TRPA1V1; Table 1(e), 1 mM", "result": 60.47, "unit": "%"}]}
{"compound": "CCCCCCCCCC(C)C=O", "note": "(stereo not drawn) [2-Methylundecanal]", "values": [{"measurement": "activation at 100 µM", "setting": "human TRPA1; Table 1(c), 100 μM (*), read-out: A1 activation, % of agonist value", "result": 54.9, "unit": "%"}, {"measurement": "A1V1 activation, % of agonist value", "setting": "TRPA1V1; Table 1(c), 100 μM (*)", "result": 57.3, "unit": "%"}]}
{"compound": "CCCC=CC(C)=O", "note": "[3-Hepten-2-one]", "values": [{"measurement": "activation at 1000 µM", "setting": "human TRPA1; [1]", "result": 82, "unit": "%"}, {"measurement": "A1V1 activation, % of agonist value", "setting": "TRPA1V1; Table 1(d), 1 mM", "result": 59, "unit": "%"}]}
{"compound": "3-mercaptopropanoate", "values": [{"measurement": "A1 activation, % of agonist value", "setting": "human TRPA1; Table 1(c)", "result": 42.7, "unit": "%"}, {"measurement": "A1V1 activation, % of agonist value", "setting": "TRPA1V1; Table 1(c), 1 mM", "result": 41.8, "unit": "%"}]}
{"compound": "CC(C=O)c1ccccc1", "note": "(stereo not drawn) [2-Phenylpropionaldehyde]", "values": [{"measurement": "activation at 1000 µM", "setting": "human TRPA1; [2]", "result": 105, "unit": "%"}, {"measurement": "A1V1 activation, % of agonist value", "setting": "TRPA1V1; Table 1(c), 1 mM", "result": 106.9, "unit": "%"}]}
{"compound": "c1ccc(CCCC2CCCO2)cc1", "note": "(stereo not drawn) [Furan, tetrahydro-2-(3-phenylpropyl)-]", "values": [{"measurement": "activation at 1000 µM", "setting": "human TRPA1; [3]", "result": 26, "unit": "%"}, {"measurement": "A1V1 activation, % of agonist value", "setting": "TRPA1V1; Table 1(e), 1 mM", "result": 72.09, "unit": "%"}]}
{"compound": "CCCOC(=O)c1ccccc1", "note": "[Propyl benzoate]", "values": [{"measurement": "activation at 1000 µM", "setting": "human TRPA1; [1]", "result": 40.7, "unit": "%"}, {"measurement": "A1V1 activation, % of agonist value", "setting": "TRPA1V1; Table 1(d), 1 mM", "result": 25.7, "unit": "%"}]}
